For 16 compounds, IC50 results are on record in US5541163A, “Renin inhibiting N-(2-amino-2-oxoethyl)butanediamide derivatives” (Bio-Mega/Boehringer Ingelheim Research Inc., priority 1993, dated 1996).

The assay has as its target T1, human renin (Homo sapiens, UniProt P00797).
T1 construct: A human plasma pool is used as the source of both the substrate (angiotensinogen) and the enzyme (renin); from tissue; host or cells: human plasma pool
T1 sequence (P00797 67-406): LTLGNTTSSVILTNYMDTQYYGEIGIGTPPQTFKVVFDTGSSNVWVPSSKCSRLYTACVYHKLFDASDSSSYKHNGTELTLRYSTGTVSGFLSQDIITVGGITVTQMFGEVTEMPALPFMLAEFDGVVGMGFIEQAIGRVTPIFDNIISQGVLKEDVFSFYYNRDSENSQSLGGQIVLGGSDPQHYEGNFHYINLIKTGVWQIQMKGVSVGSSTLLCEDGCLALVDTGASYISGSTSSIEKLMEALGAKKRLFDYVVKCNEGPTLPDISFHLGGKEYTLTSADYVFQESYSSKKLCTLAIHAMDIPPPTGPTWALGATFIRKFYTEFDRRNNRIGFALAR
The assay is described as follows: Plasma renin assay (inhibition of human renin, angiotensin I by RIA). The settings on record: human plasma pool, pH 6.0, 2 h incubation at 37°. The format is biochemical. How it is done:
The assay is performed as follows: The test compound (i.e. the inhibitor) is dissolved in dimethylsulfoxide (1 mM stock solution) and diluted with an aqueous buffer solution of 270 mM 2-(N-morpholino)ethanesulfonic acid and 1% human serum albumin (pH 5.85, also containing dimercaprol and 8-hydroxyquinoline sulfate in accordance with the instructions of the RIA kit noted below) to give an assay mixture in which the final dimethylsulfoxide content is 1% (v/v).
A human plasma pool is used as the source of both the substrate (angiotensinogen) and the enzyme (renin). The reaction is initiated by the addition of 50 μL of human plasma pool to 50 μL of various concentrations of inhibitor in the 1% dimethylsulfoxide assay buffer. The plasma renin activity is measured by the amount of angiotensin I generated at pH 6.0 following a 2 h incubation at 37°.
Quantitation of angiotensin I is performed by radioimmunoassay (RIA kit from New England Nuclear-Dupont, Mississauga, ON, Canada). The enzymatic activity of renin is expressed in ng of angiotensin I generated (/mL/2 h). The extent of inhibition of the reaction is determined from the amount of angiotensin I generated in reference to a control prepared without inhibitor. Nonlinear regression analysis is used to calculate the IC50 values, i.e. the molar concentration of the test compound required to cause a 50% inhibition of the enzyme activity.
In turn, `CC(C)C[C@H](O)[C@H](O)[C@H](CC1CCCCC1)NC(=O)[C@@H](CC(=O)N(CC(=O)N(C)C)CC1CC2CCC1C2)Cc1cscn1` (mixture of isomers) [Compound 56, N^4 -{{1(S),2(R),4(S)-and 1(R),2(S),4(R)-{bicyclo[2.2.1]hept-2-yl}methyl}-N^4-[2-(dimethylamino)-2-oxoethyl]-N^1-[1(S)-(cyclohexylmethyl)-2(R),3(S)-dihydroxy-5-methylhexyl]-2(R)-(4-thiazolylmethyl)butanediamide] displayed an IC50 of 2 nM.
The figure for `CC(C)C[C@H](O)[C@H](O)[C@H](CC1CCCCC1)NC(=O)[C@@H](CC(=O)N(CC(=O)N1CCOCC1)Cc1ccccc1)CC1CC1` [Compound 1, N^4-benzyl-N^4-(2-morpholino-2-oxoethyl)-N^1-[1(S)-(cyclohexylmethyl)-2(R),3(S)-dihydroxy-5-methylhexyl]-2(R)-(cyclopropylmethyl)butanediamide] is 94 nM; for `CC(C)C[C@H](O)[C@H](O)[C@H](CC1CCCCC1)NC(=O)[C@@H](CC(=O)N(CC(=O)N(C)C)Cc1ccccc1)CC1CC1` [Compound 2, N^4-benzyl-N^4-[2-(dimethylamino)-2-oxoethyl]-N^1-[1(S)-(cyclohexylmethyl)-2(R),3(S)-dihydroxy-5-methylhexyl]-2(R)-(cyclopropylmethyl)butanediamide] it is 56 nM.
The figure for `CC(C)C[C@H](O)[C@H](O)[C@H](CC1CCCCC1)NC(=O)[C@@H](CC(=O)N(CCc1ccccc1)CC(=O)N(C)C)CC1CC1` [Compound 3, N^4-[2-(dimethylamino)-2-oxoethyl]-N^4-(2-phenylethyl)-N^1-[1(S)-(cyclohexylmethyl)-2(R),3(S)-dihydroxy-5-methylhexyl]-2(R)-(cyclopropylmethyl)butanediamide] is 59 nM; for `CC(C)C[C@H](O)[C@H](O)[C@H](CC1CCCCC1)NC(=O)[C@@H](CC(=O)N(CCCc1ccccc1)CC(=O)N(C)C)CC1CC1` [Compound 4, N^4-[2-(dimethylamino)-2-oxoethyl]-N^4-(3-phenylpropyl)-N^1-[1(S)-(cyclohexylmethyl)-2(R),3(S)-dihydroxy-5-methylhexyl]-2(R)-(cyclopropylmethyl)butanediamide] it is 220 nM.
`CC(C)C[C@H](O)[C@H](O)[C@H](CC1CCCCC1)NC(=O)[C@@H](CC(=O)N(CC(=O)N(C)C(C)(C)C)Cc1ccccc1)CC1CC1` [Compound 5, N^4-benzyl-N^4 -{2-[methyl(1,1-dimethylethyl)amino]-2-oxoethyl}-N^1-[1(S)-(cyclohexylmethyl)-2(R),3(S)-dihydroxy-5-methylhexyl]-2(R)-(cyclopropylmethyl)butanediamide] displayed an IC50 of 290 nM.
The value for `CNC(=O)CN(Cc1ccccc1)C(=O)C[C@@H](CC1CC1)C(=O)N[C@@H](CC1CCCCC1)[C@@H](O)[C@@H](O)CC(C)C` [Compound 6, N^4-benzyl-N^4-[2-(methylamino)-2-oxoethyl]-N^1-[1(S)-(cyclohexylmethyl)-2(R),3(S)-dihydroxy-5-methylhexyl]-2(R)-(cyclopropylmethyl)butanediamide] was 350 nM; that for `CC(C)C[C@H](O)[C@H](O)[C@H](CC1CCCCC1)NC(=O)[C@@H](CC(=O)N(CC(N)=O)Cc1ccccc1)CC1CC1` [Compound 7, N^4-(2-amino-2-oxoethyl)-N^4-benzyl-N^1-[1(S)-(cyclohexylmethyl)-2(R),3(S)-dihydroxy-5-methylhexyl]-2(R)-(cyclopropylmethyl)-butanediamide] was 395 nM.
For `CON(C)C(=O)CN(Cc1ccccc1)C(=O)C[C@@H](CC1CC1)C(=O)N[C@@H](CC1CCCCC1)[C@@H](O)[C@@H](O)CC(C)C` [Compound 8, N^4-benzyl-N^4 -{2-[(methoxy)methylamino]-2-oxoethyl}-N^1-[1(S)-(cyclohexylmethyl)-2(R),3(S)-dihydroxy-5-methylhexyl]-2(R)-(cyclopropylmethyl)butanediamide], the IC50 amounted to 66 nM.
For `CC(C)C[C@H](O)[C@H](O)[C@H](CC1CCCCC1)NC(=O)[C@@H](CC(=O)N(CC(=O)N(C)C)Cc1cccc2ccccc12)CC1CC1` [Compound 9, N^4-[2-(dimethylamino)-2-oxoethyl]-N^4-(1-naphthylmethyl)-N^1-[1(S)-(cyclohexylmethyl)-2(R),3(S)-dihydroxy-5-methylhexyl]-2(R)-(cyclopropylmethyl)butanediamide], inhibition was half-maximal at 66 nM (IC50). That is a double-digit nanomolar value.
The figure for `COc1ccc(CN(CC(=O)N(C)C)C(=O)C[C@@H](CC2CC2)C(=O)N[C@@H](CC2CCCCC2)[C@@H](O)[C@@H](O)CC(C)C)cc1` [Compound 10, N^4-[2-(dimethylamino)-2-oxoethyl]-N^4-[(4-methoxyphenyl)methyl]-N^1-[1(S)-(cyclohexylmethyl)-2(R),3(S)-dihydroxy-5-methylhexyl]-2(R)-(cyclopropylmethyl)butanediamide] is 440 nM.
The value for `CCN(CC)C(=O)CN(Cc1ccccc1)C(=O)C[C@@H](CC1CC1)C(=O)N[C@@H](CC1CCCCC1)[C@@H](O)[C@@H](O)CC(C)C` [Compound 11, N^4-benzyl-N^4-[2-(diethylamino)-2-oxoethyl]-N^1-[1(S)-(cyclohexylmethyl)-2(R),3(S)-dihydroxy-5-methylhexyl]-2(R)-(cyclopropylmethyl)-butanediamide] was 140 nM; that for `CC(C)C[C@H](O)[C@H](O)[C@H](CC1CCCCC1)NC(=O)[C@@H](CC(=O)N(CC(=O)N(C)CCc1ccccn1)Cc1ccccc1)CC1CC1` [Compound 12, N^4-benzyl-N^4 -{2-{methyl[2-(2-pyridinyl)ethyl]amino}-2-oxoethyl}-N^1-[1(S)-(cyclohexylmethyl)-2(R),3(S)-dihydroxy-5-methylhexyl]-2(R)-(cyclopropylmethyl)butanediamide] was 34 nM; that for `CC(C)C[C@H](O)[C@H](O)[C@H](CC1CCCCC1)NC(=O)[C@@H](CC(=O)N(CC(=O)N(C)C)Cc1ccccn1)CC1CC1` [Compound 13, N^4-[2-(dimethylamino)-2-oxoethyl]-N^4-(2-pyridinylmethyl)-N^1-[1(S)-(cyclohexylmethyl)-2(R),3(S)-dihydroxy-5-methylhexyl]-2(R)-(cyclopropylmethyl)butanediamide] was 120 nM.
The figure for `CC(C)C[C@H](O)[C@H](O)[C@H](CC1CCCCC1)NC(=O)[C@@H](CC(=O)N(CC(=O)N(C)C)Cc1cccnc1)CC1CC1` [Compound 14, N^4-[2-(dimethylamino)-2-oxoethyl]-N^4-(3-pyridinylmethyl)-N^1-[1(S)-(cyclohexylmethyl)-2(R),3(S)-dihydroxy-5-methylhexyl]-2(R)-(cyclopropylmethyl)butanediamide] is 350 nM; for `CC(C)C[C@H](O)[C@H](O)[C@H](CC1CCCCC1)NC(=O)[C@@H](CC(=O)N(CC(=O)N(C)CCN(C)C(=O)N1CCOCC1)[C@@H](C)c1ccccc1)Cc1csc(N)n1` [Compound 15, N^4 -{2-{methyl{2-[methyl(morpholinocarbonyl)amino]ethyl}amino}-2-oxoethyl}-N^4-[1(S)-phenylethyl]-N^1-[1(S)-(cyclohexylmethyl)-2(R),3(S)-dihydroxy-5-methylhexyl]-2(R)-[(2-amino-4-thiazolyl)methyl]butanediamide] it is 0.5 nM.

For orientation: IC50 means the concentration at which inhibition is half-maximal. Low readings indicate greater potency, high ones weaker potency.
